Entries after “also recorded” stand apart in the source; their conditions may differ.

In data set [1] the test system is HUVEC (human umbilical vein endothelial cells). Nature of the data set: HUVEC cell attachment on hydrogels based on various self-assembling sequence. The following applies: HUVEC cultured for three days. How it is done:
Cell attachment and viability of the hydrogels were evaluated using HUVEC (human umbilical vein endothelial cells). The peptide solutions shown in Table 22 were loaded in the culture inserts (10 mm diameter, Millicell-CM, Millipore) and gels were formed using cell culture medium (EGM-2-MV, Camblex). HUVEC were plated at 8×10^4 cells on the inserts and cultured for three days.
This implies that functionalization of the self-assembling peptide is useful regardless of the basic repetitive sequence, while the properties of hydrogel can be controlled by altering basic repetitive sequence in amino acid and length.

Data set [2] concerns MC3T3-E1 cells. The data set is described as follows: Effect of RAD:DSG mixture ratio on cell proliferation (DNA contents, 7 days). The class given is cell-based, mouse. Conditions: RAD:DSG mixture ratio varied from 100:0 to 0:100, FIG. 8. How it is done: Effect of a mixture of self-assembling sequence peptide (e.g., 1% RAD16-1 peptide solution) and a functionalized peptide (SEQ ID NO. 7) with self-assembling sequence (RADA) (SEQ ID NO. 67) and functional motif (RGD), was evaluated (Tables 8-9) SEQ ID NO. 7 has an additional Glycine at the N-terminus (compared to SEQ ID NO. 4), which causes an increase in hydrophobicity of the hydrogel. Biologically SEQ ID NO. 4 and SEQ ID NO. 7 are considered to have similar effects.
Hydrogels were prepared so that the mixture ratio of RAD and DSG was varied from 100:0 to 0:100 (FIG. 8). Cells were prepared and seeded as described in Example 1. Cells were cultured on hydrogels for 7 days. Cell proliferation was evaluated using DNA contents in the hydrogel as same as Example 1.

Data set [3] can be described thus: Gel stiffness of hydrogel. In kind it is physicochemical. Conditions: compared to RAD.
Data set [4] has as its system MC3T3-E1 cells. The data set is described as follows: Confocal microscopy of cells cultured on different functional peptide (DSG) concentration. In kind it is cell-based, mouse.
For data set [5], the system named is HUVEC (human umbilical vein endothelial cells). The data set is described as follows: HUVEC cultured 2-dimensionally on hydrogels: cell attachment and morphology. The class given is cell-based. The arrangement: key to Capillary like morphology: weak: +; medium: ++; strong: +++; very strong: ++++. The following applies: HUVEC cultured on hydrogels. How it is done: The effect of functional modified peptide matrix to HUVEC (human umbilical vein endothelial cells) was evaluated by culturing cells 2-dimensionally on the gel.
The peptide solutions shown in Table 19 were loaded in the culture inserts (10 mm diameter, Millicell-CM, Millipore) and gels were formed using cell culture medium (EGM-2-MV, Camblex). Collagen-1 and Matrigel were used as control matrices. HUVEC (human umbilical vein endothelial cells) were plated at 8×10^4 cells on the inserts and cultured up to 7 Days.

Data set [6] relates to chondrocytes. The following applies: encapsulated chondrocytes (Kisiday 2002); cited from earlier work.
Data set [7] can be described thus: pI and charge of the self-assembling peptide. In kind it is physicochemical. How it is done:
(§1) A comparison of the pH dependent property of 1% Ac(RADA)4GGFHRRIKA CONH2 (SEQ ID NO. 6) solution (Code: FHR), self assembling peptide sequence was compared with the heparin-binding motif. FIG. 12 depicts the isoelectric plot and corresponding rheological data when 0.1 N NaOH solution is added to FHR solution to adjust pH. The net charge of the peptide molecule is kept ≧2 when pH<10. Until at point of pH 5.7, the solution keeps viscous state. This movement of pH point where the peptide solution become gel is controlled by the charge induced by the additional motif to the self-assembling peptide. The induced charge prevents the peptide to aggregate to form the gel. Thus, the cell and the peptide solution can be mixed near neutral pH. After complete mixing, the gel formation can be made by adding salt containing solution (e.g., a solution containing a gellation agent or an iso-osmotic solute).
FIG. 18 depicts the isoelectric plot and Rheological data of PFS 1% solution when 0.1 N NaOH solution is added. 1% Ac(RADA)4GGSKPPGTSS-CONH2 solution (Code: SKP, peptide sequence: SEQ ID NO. 7) is a hydrogel composed of peptides with a self-assembling sequence and positively-charged functional motif. Although the pI value of the peptide is 9.74 and it keeps positive charge at near pH 7 range, the gel is formed at the point of pH 4.5. This is because the charge of the molecule around pH 7 range is +1 and smaller than the charge of Ac(RADA)4GGFHRRIKA CONH2 (FHR) (bigger than 3). The charge of the whole peptide should be larger than 2 when the cell is mixed. This pH should be somewhere in 6-8 in order to minimize the damage to the cells. As this sequence is heparin-binding motif, the fiber can attach to the heparin molecule which is abundant at cell surface. This heparin-binding motif provides a specific anchor to the cell. As described in Example 1, this binding synergistically works with the other binding motif (e.g., RGD) to induce biological stimuli for cell proliferation and differentiation. This effect is not limited to the sequences previously describe, but the other motifs, including -XBBXBX- and -XBBBXXBX- sequences. […]

Data set [8] has as its target bFGF (Homo sapiens, UniProt P09038). Nature of the data set: bFGF retention in peptide matrix (ELISA). The following applies: bFGF 175 ng/insert loaded after gelation; during PBS washing and culturing; FIG. 19. How it is done: (§2) The effect of protein retention and delivery using the self-assembling peptide were studied (Table 11). bFGF was used as a model protein. The retention of bFGF in different peptide matrix in different charge condition was measured by ELISA after washing by PBS. After washing out unbound bFGF, the effect of protein retention to self-assembling peptide matrix were evaluated the using cell culturing of HUVEC (human umbilical vein endothelial cells).
The peptide solutions provided in Table 12 were loaded in the culture inserts (10 mm diameter, Millicell-CM, Millipore) and gels were formed using PBS. After gelation, bFGF solution in PBS was added inside and outside and plated for overnight. bFGF was loaded at 175 ng/insert. After loading bFGF, the PBS inside and outside the inserts were exchanged three times (2 hours, 9 hours and 12 hours) to remove unbound bFGF (Washing). After the washing, the PBS was exchanged to the cell culture medium (EGM-2-MV, Camblex) without attached growth factor (bFGF, VEGF and EGF) and placed more than a day (such that the fluid contained in the gel is exchanged from PBS to cell culture medium), then HUVEC (human umbilical vein endothelial cells) were plated at 7.5×10^4 cells on the inserts and cultured for three days.
Cell culturing using cell culture medium (EGM-2-MV) was used without attached growth factor on peptide matrix as negative control. Cell culturing using cell culture medium (EGM-2-MV) was used with attached growth factor on peptide matrix without loading growth factor as positive control. The bFGF concentration in washing buffer (PBS) and cell culture medium (EGM-2-MV) was measured using ELISA. The washing buffer and cell culture medium were exchanged at each measurement period (2 hours, 9 hours and 12 hours for washing, and at the cell seeding (D0), Day 1 (D 1), Day 2 (D2) and Day 3 (D3)). Growth factor retention rate was calculated by accumulating the amount of measured bFGF.
On the technique in general: An ELISA detects its analyte on a solid surface through an enzyme-linked reagent.

In data set [9] the test system is HUVEC (human umbilical vein endothelial cells). The data set is described as follows: HUVEC culture on bFGF loaded peptide matrix. In kind it is cell-based. Conditions: Day 3; bFGF loaded matrix compared to negative and positive control; FIG. 21. How it is done: as §2
The peptide solutions provided in Table 12 were loaded in the culture inserts (10 mm diameter, Millicell-CM, Millipore) and gels were formed using PBS. After gelation, bFGF solution in PBS was added inside and outside and plated for overnight. bFGF was loaded at 175 ng/insert. After loading bFGF, the PBS inside and outside the inserts were exchanged three times (2 hours, 9 hours and 12 hours) to remove unbound bFGF (Washing). […]
Cell culturing using cell culture medium (EGM-2-MV) was used without attached growth factor on peptide matrix as negative control. […] The bFGF concentration in washing buffer (PBS) and cell culture medium (EGM-2-MV) was measured using ELISA. […] Growth factor retention rate was calculated by accumulating the amount of measured bFGF. […]

Data set [10] is described as follows: Isoelectric plot and rheological data when 0.1 N NaOH is added (pH of gel formation). The following applies: 1% solution, 0.1 N NaOH solution added. The class given is physicochemical.
Description: At the point of pH 3.6, the viscous solution become gel and has a higher G′ (stiffness), G″ (viscosity) value. When the pH is increased, the gel breaks into small pieces and it becomes a solution with precipitated peptides. At lower pH, the peptide forms fibers and the fibers make the solution viscous. When the pH becomes higher, and approaches the pI value, the peptide fibers lose their charge and aggregate to form gel. The same gel formation happens when the peptide charge is screened by salts in a salt-containing solution (e.g., a solution containing a gellation agent or an iso-osmotic solute). Once the gel is formed, the fiber structure is broken into pieces to form a precipitate particle.
as §1
FIG. 18 depicts the isoelectric plot and Rheological data of PFS 1% solution when 0.1 N NaOH solution is added. 1% Ac(RADA)4GGSKPPGTSS-CONH2 solution (Code: SKP, peptide sequence: SEQ ID NO. 7) is a hydrogel composed of peptides with a self-assembling sequence and positively-charged functional motif. Although the pI value of the peptide is 9.74 and it keeps positive charge at near pH 7 range, the gel is formed at the point of pH 4.5. […]

bFGF, sequence (P09038 143-288, species assumed): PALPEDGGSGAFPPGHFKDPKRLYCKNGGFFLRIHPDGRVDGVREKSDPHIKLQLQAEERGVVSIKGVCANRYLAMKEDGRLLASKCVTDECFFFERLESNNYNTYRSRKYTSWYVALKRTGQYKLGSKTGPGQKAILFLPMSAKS

Regarding AcIEIKIEIKIGGSKPPGTS-CONH2 [ESKP], the Cell attachment result in data set [1] was “+ (+: Weak(<20%))”.

On to AcIEIKIEIKIGGPRGSYRGDS-CONH2 [EPRG], for which the Cell attachment result in data set [1] is “++++ (++++: near confluence(>70%))”.

For the substance “Ac(RADA)4GPRGDSGYRGDSG-CONH2 (Ac-RADARADARADARADAGPRGDSGYRGDSG-NH2) [DSG = 1% solution]”, the “Cell proliferation (fluorescence intensity linear to the DNA contents)” value in data set [2] was “drop in fluorescence and drop”. In addition, the gel stiffness result in data set [3] was “less stiff gel; also recorded: lower stiffness gel”. In addition, in [4] (DSG ratio 10%, FIG. 9A), the “cell location on the peptide matrix” value is listed as “stayed on the surface of the peptide matrix”. Further, the “cell migration into the matrix” value in data set [4] (DSG ratio 70%, FIG. 9B) is on record as “up to 300 um”.

Turning to AcIEIKIEIKIGGPFSSTKT-CONH2 [EPFS], the Cell attachment result in data set [1] is recorded as “+ (+: Weak(<20%))”.

On to “Ac(RADA)4GGPFSSTKT-CONH2 (Ac-RADARADARADARADAGGPFSSTKT-NH2) [Bone marrow homing; PFS = 1% peptide solution]”, for which, in data set [5], the Capillary like morphology entry was “+” and the Cell attachment entry was “++ (++: 20-50%)”.

With “AcNKLDLKLDLKLDL-CONH2 (Ac-KLDLKLDLKLDL-NH2; not fully specified) [KLD12]”, the “chondrocyte phenotype and ECM” value in data set [6] is “retained their morphology and developed a cartilage-like, mechanically functional ECM rich in proteoglycans and type-II collagen”.

Consider Ac-IEIKIEIKI-NH2 [reference compound], for which the Cell attachment result in [1] is “++ (++: 20-50%)”.

As to “Ac(RADA)4GGDGRGDSVAYG-CONH2 (Ac-RADARADARADARADAGGDGRGDSVAYG-NH2) [SEQ ID NO. 5, Cell adhesion domain (Osteopontin); DGR-2P = 2% solution]”, in data set [7], the charge result is listed as “negatively charged” and the pI is 4.78,. Further, the “bFGF (growth factor) retention rate” value in data set [8] is reported as “high in the order of KFQ-2P, FHR-2P, RAD-2P then DGR-2P”. The “cell attachment and cell spread” value in data set [9] is “superior”.

In the case of AcFKFQFKFQFKFQGPRGDSGYRGDS-CONH2 [KPRG], the Cell attachment result in data set [1] is recorded as “++++ (++++: near confluence(>70%))”.

Regarding “Ac(RADA)4GGSKPPGTSS-CONH2 (Ac-RADARADARADARADAGGSKPPGTSS-NH2) [Bone marrow homing; SKP = 1% solution]”, the “pH at which the viscous peptide solution becomes gel” value in [10] came to 4.5. Moreover, the pI in data set [7] came out at 9.74. The “charge of the molecule around pH 7 range” value in [7] (around pH 7) is “+1”.

(Values after patent US8022178B2, “Modified self-assembling peptides” (Massachusetts Institute of Technology, priority 2006, dated 2011).)
